In article PMC10958225, “Therapeutic potential of orally applied KB-R7943 in streptozotocin-induced neuropathy in rats” (Heliyon, 2024):
Read-outs that look alike come from different tables or passages of the source.

Test: Pilot PK study of orally applied KB-R7943 in control and STZ-induced diabetic rats (LC-MS/MS)
Assay type: in vivo, rat
Details: for AUC(0-inf) / Cmax / Tmax / half-life / AUC(0-t) / Kp: Wistar, rat, po, 10 mg/kg; for AUC(0-t): read-out: AUC(0-24); for Kp: read-out: AUC(0-24) tissue/AUC (0-24) plasma; for Vd (volume of distribution): dose/(λ × AUC 0–24); for Cl (clearance): dose/AUC0-24
Experimental: Chromatographic separation was achieved by injecting 5 μL of the sample extract (on each instrument) into a Zorbax SB-C8 150 mm × 4.6 mm × 1.8 μm column. The mobile phase was a mixture in a gradient mode of two components: solvent A - 0.1% formic acid in water and solvent B - 0.1% formic acid in acetonitrile. The flow rate was set to 0.400 ml/min with the following gradient program: 0.0–0.5 min 90% solvent A, 0.5–10.0 min 10% solvent A, 10.0–12.0 min 10% solvent A, 12.0–12.1 min 90% solvent A, 12.1–13.0 min 90% solvent A. Mass spectrometric detection was performed with positive electrospray (ESI(+)). Analytes were determined by selecting two characteristic target reactions (MRM transitions) and the retention time of the analytes. The following MS parameters were kept constant during the analysis: nebulizer voltage 4800 V for positive ionization. The temperature of the cone was set at 300 °C, the temperature of the heated probe at 400 °C, the gas flowed through the nebulizer at 3 l/min, and the flow rate of the drying gas was 10 l/min. Two product ions and one precursor ion were selected for analyte identification (Table 1).
200 mg of the sample (plasma, urine, homogenate) was transferred into 1.5 ml Eppendorf tubes, 10 μl of the internal standard solution was added and thoroughly mixed using a rotary shaker, and then 1 ml of the extracting solution of 0.1% formic acid in acetonitrile, was added. After ultrasonic stirring for 15 min, the tubes were centrifuged at 14,000 rpm for 5 min. Approximately 1 ml of the supernatant was decanted and transferred to a 15 ml Falcon plastic tube, 1 ml of the extracting solution (0.1% formic acid in acetonitrite) was added to the precipitate, and the extraction procedure was repeated. […] successive extracts were combined, 3 ml of hexane was added, and mixed on a rotary shaker for 5 min, after which the top layer of hexane was separated, and the purification procedure was repeated 2 more times. The purified extract was transferred to a 5 ml glass vial and evaporated to dryness in an FMS Super Vap 24 at 45 °C under nitrogen flow. 200 μL of the extractant was added to the vials, and the remains of the analyte were washed off the walls of the vial by stirring the solution on a rotary shaker for 3 min, after which the resulting solution was transferred into glass vials for HPLC analysis. With each batch of samples, appropriate matrix controls were prepared and extracted with the addition of KB- R7943 at 0, 0.1, 1, 10, 100, 1000, 5000, 20,000, and 200,000 ng/g and extracted simultaneously with the samples (Fig. 2).
Experiment 1 (Fig. 3A) was designed as a pilot PK study to assess the body distribution of orally applied KB-R7943 and to inform about some important PK parameters. Two groups, i.e., controls (n = 9) and STZ-induced diabetic models (n = 9), were included in the experiment. Each rat was placed in an individual metabolic cage and kept there until the administration of the drug. The KB-R7943 was applied once, p.o., in a 10 mg/kg dose with gavage. OraPlus was a vehiculum (16 gauge feeding tube 10 ml/kg). After applying of the KB-R7943, each rat was returned to their cage, and blood and urine samples were collected at 1st, 6th, and 24th hours (different n = 3 at each time-point). Metabolic cages were specially designed to separate feces from urine through the funnel, and a separation cone was used.
Blood samples were collected in EDTA-containing tubes with cardiopunction under ketamine-xylasine anesthesia (100 mg/kg and 10 mg/kg, respectively). After 1 h incubation (+4/+8 °C), blood was centrifugated 1000 g, and the plasma was used for the analysis after that.
Isolation of tissue samples of the heart and parts of the brain was performed after perfusion of the upper body of the rat with a phosphate-buffered saline (PBS) using a perfusion pump (BT100-2J LongerPump, Halma PLC, UK). Homogenates were prepared as 1:4 ratios (v/v) with PBS and stored at −80 °C until analysis. […]

[1] = AUC tissue/AUC plasma, 10 mg/kg p.o. once
[2] = cortex, STZ-diabetic rats, 10 mg/kg p.o. once
[3] = cortex, control rats, 10 mg/kg p.o. once
[4] = cortex, cortex, STZ-diabetic rats, 10 mg/kg p.o. once
[5] = cortex, cortex, control rats, 10 mg/kg p.o. once
[6] = heart, STZ-diabetic rats, 10 mg/kg p.o. once
[7] = heart, control rats, 10 mg/kg p.o. once
[8] = hippocampus, STZ-diabetic rats, 10 mg/kg p.o. once
[9] = hippocampus, control rats, 10 mg/kg p.o. once
[10] = hippocampus, hippocampus, STZ-diabetic rats, 10 mg/kg p.o. once
[11] = hippocampus, hippocampus, control rats, 10 mg/kg p.o. once
[12] = hypothalamus, STZ-diabetic rats, 10 mg/kg p.o. once
[13] = hypothalamus, control rats, 10 mg/kg p.o. once
[14] = hypothalamus, hypothalamus, STZ-diabetic rats, 10 mg/kg p.o. once
[15] = hypothalamus, hypothalamus, control rats, 10 mg/kg p.o. once
[16] = plasma, STZ-diabetic rats, 10 mg/kg p.o. once
[17] = plasma, control rats, 10 mg/kg p.o. once
[18] = urine, STZ-diabetic rats, 10 mg/kg p.o. once
[19] = urine, control rats, 10 mg/kg p.o. once

N=C(N)SCCc1ccc(OCc2ccc([N+](=O)[O-])cc2)cc1 [KB-R7943, [(2-{4-[(4-nitrophenyl)methoxy]phenyl}ethyl)sulfanyl]methanimidamide]
heart penetration, times higher in control group vs. diabetic rats [1]: 1.2 times
hippocampus penetration, times higher in control group vs. diabetic rats [1]: over 2.5 times
AUC(0-inf) [2]: 1000 ng·h/mL
Cmax [2]: 103 ng/mL
Tmax [2]: 1 h
half-life [2]: 462 min
Cmax [3]: 11.5 ng/mL
Tmax [3]: 24 h
AUC(0-t) [4]: 880 ng·h/mL
Kp [4]: 14.5
AUC(0-t) [5]: 232 ng·h/mL
Kp [5]: 14.2
Cmax [6]: 5600 ng/mL
Tmax [6]: 1 h
half-life [6]: 342 min
Cmax [7]: 893 ng/mL
Tmax [7]: 1 h
half-life [7]: 420 min
Kp (heart, heart, STZ-diabetic rats, 10 mg/kg p.o. once): 499
Kp (heart, heart, control rats, 10 mg/kg p.o. once): 622
AUC(0-inf) [8]: 865 ng·h/mL
Cmax [8]: 57 ng/mL
Tmax [8]: 1 h
half-life [8]: 696 min
Cmax [9]: 39.6 ng/mL
Tmax [9]: 24 h
AUC(0-t) [10]: 645 ng·h/mL
Kp [10]: 10.7
AUC(0-t) [11]: 449 ng·h/mL
Kp [11]: 27.4
AUC(0-inf) [12]: 1020 ng·h/mL
Cmax [12]: 75 ng/mL
Tmax [12]: 1 h
half-life [12]: 822 min
Cmax [13]: 9.5 ng/mL
Tmax [13]: 24 h
AUC(0-t) [14]: 668 ng·h/mL
Kp [14]: 11
AUC(0-t) [15]: 215 ng·h/mL
Kp [15]: 13.1
AUC(0-inf) [16]: 61.7 ng·h/mL
Cmax [16]: 11 ng/mL
Tmax [16]: 1 h
half-life [16]: 252 min
AUC(0-inf) [17]: 17.7 ng·h/mL
Cmax [17]: 3.2 ng/mL
Tmax [17]: 1 h
half-life [17]: 366 min
AUC(0-t) (plasma, plasma, STZ-diabetic rats, 10 mg/kg p.o. once): 60.6 ng·h/mL
AUC(0-t) (plasma, plasma, control rats, 10 mg/kg p.o. once): 16.4 ng·h/mL
Tmax (plasma, systemic circulation after oral application, rats): ~1 h
Cmax [18]: 59.3 ng/mL
Tmax [18]: 24 h
Cmax [19]: 47.2 ng/mL
Tmax [19]: 24 h
AUC(0-t) (urine, urine, STZ-diabetic rats, 10 mg/kg p.o. once): 974 ng·h/mL
AUC(0-t) (urine, urine, control rats, 10 mg/kg p.o. once): 727 ng·h/mL
β of linear regression Ln(Conc) vs time (cortex concentration, controls, 10 mg/kg p.o. once): β = 0.015, p = 0.703
β of linear regression Ln(Conc) vs time (cortex concentration, diabetes, 10 mg/kg p.o. once): β = −0.075, p = 0.008
%Extrap [2]: 12,20%
ƛ (terminal slope) [2]: −0.07
%Extrap [3]: 142,00%
ƛ (terminal slope) [3]: 0.02
β of linear regression Ln(Conc) vs time (heart concentration, controls, 10 mg/kg p.o. once): β = −0.107, p = 0.003
β of linear regression Ln(Conc) vs time (heart concentration, diabetes, 10 mg/kg p.o. once): β = −0.125, p = 0.026
%Extrap [6]: 6,20%
ƛ (terminal slope) [6]: −0.12
%Extrap [7]: 8,4%
ƛ (terminal slope) [7]: −0.11
β of linear regression Ln(Conc) vs time (hippocampus concentration, controls, 10 mg/kg p.o. once): β = −0.037, p = 0.283
β of linear regression Ln(Conc) vs time (hippocampus concentration, diabetes, 10 mg/kg p.o. once): β = −0.048, p = 0.097
%Extrap [8]: 25,40%
ƛ (terminal slope) [8]: −0.05
ƛ (terminal slope) [9]: 0.04
β of linear regression Ln(Conc) vs time (hypothalamus concentration, controls, 10 mg/kg p.o. once): β = −0.007, p = 0.830
β of linear regression Ln(Conc) vs time (hypothalamus concentration, diabetes, 10 mg/kg p.o. once): β = −0.045, p = 0.127
%Extrap [12]: 34,50%
ƛ (terminal slope) [12]: −0.04
%Extrap [13]: 111,50%
ƛ (terminal slope) [13]: 0.01
β of linear regression Ln(Conc) vs time (plasma concentration, controls, 10 mg/kg p.o. once): β = 0.094, p = 0.036
β of linear regression Ln(Conc) vs time (plasma concentration, diabetes, 10 mg/kg p.o. once): β = 0.163, p = 0.017
AUC(0-24), times higher in rats with diabetes vs. controls (plasma, 10 mg/kg p.o. once): Over 3 times
Vd, times lower in rats with diabetes vs. controls (plasma, 10 mg/kg p.o. once): over 7 times
decline of the plasma concentration, rats with diabetes vs. controls (plasma, 10 mg/kg p.o. once): over one and half times faster decline
systemic clearance, times lower in rats with diabetes vs. controls (plasma, 10 mg/kg p.o. once): over 4 times
%Extrap [16]: 1,90%
ƛ (terminal slope) [16]: −0.16
Vd (volume of distribution) [16]: 288.78 L
Cl (clearance) [16]: 46.20 L/h
%Extrap [17]: 7,40%
Vd (volume of distribution) [17]: 2100.27 L
Cl (clearance) [17]: 189.02 L/h
β of linear regression Ln(Conc) vs time (urine concentration, controls, 10 mg/kg p.o. once): β = −0.074, p = 0.158
β of linear regression Ln(Conc) vs time (urine concentration, diabetes, 10 mg/kg p.o. once): β = −0.041, p = 0.455
%Extrap [18]: 196,30%
ƛ (terminal slope) [18]: −0.04
ƛ (terminal slope) [19]: 0.07
